For orientation: pIC50 means the negative decadic logarithm of the IC50, by convention in mol/L.

pIC50: −log10 of the molar value. Where only a bound is given, the exact number is not on record here.

For the test, the system named is STAT5 phosphorylation downstream of JAK3 in human YT cells. Description: pSTAT5 cell assay (IL-2 stimulated YT cells, AlphaScreen). As to conditions: IL-2 stimulation, read-out: Inhibition values (IC50) pSTAT5. Format: cell-based. The source says:
STAT5 phosphorylation represents one of the proximal events in the signalling cascade downstream of JAK3 activation. Therefore STAT5 phosphorylation is an appropriate readout to assess the mechanistic effect of JAK3 inhibition. Stimulation of human YT cells, an NK-like cell line, with interleukin-2 (IL-2) results in phosphorylation of STAT5 at tyrosine residue 694 (Tyr694) that can be quantitatively measured by immunodetection with specific antibodies and an appropriate detection method, in this case AlphaScreen assay technology.
Human YT cells were grown in RPMI medium (Lonza, BE12-167) with 2 mM L-Glutamine (Invitrogen, 25030-024) and 10% heat-inactivated FBS (Invitrogen, 10106-169) and kept in a humidified incubator (37° C., 5% CO2). Cells were harvested by centrifugation, washed once with HBSS (Invitrogen, 14180-046), resuspended in HBSS at 1.5×10^6 cells/ml and 0.9×10^4 cells were seeded in 6 μl per well in a 96 well White plate (PerkinElmer, 6005569).
Test compounds were dissolved in DMSO and a 1:3 dilution series (9 steps) was prepared. To generate a dose response curve, 3 μl of fourfold concentrated compound in 4% DMSO/HBSS were added to each cell sample in the 96 well plate resulting in a final DMSO concentration of 1% DMSO. Cells were incubated for one hour in a humidified incubator (37° C., 5% CO2). To each well 3 μl of a fourfold concentrated IL-2 solution (Recombinant human IL-2, Peprotech 200-02; 120 nM solution in HBSS) was added and incubated for 30 minutes at room temperature. Cells were lysed by adding 3 μl of 5× lysis buffer (SureFire lysis buffer; Perkin Elmer, TGRS5S10K) and incubated for 10 minutes at room temperature with gentle shaking
For signal detection by AlphaScreen® technology the SureFire phospho-STAT5 (Tyr694/Tyr699) kit was used according to instructions provided by the manufacturer (Perkin Elmer, TGRS5S10K). Acceptor beads were added as recommended by the manufacturer (Reactivation buffer/Activation buffer/Acceptor beads at a ratio of 40:10:1) and incubated at room temperature for 1.5 hours with gentle shaking Then donor beads were added as recommended (Dilution buffer/Donor beads at a ratio of 20:1) and incubated at room temperature for 1.5 hours with gentle shaking Plates were read on an Envision instrument (Perkin Elmer) with the AlphaScreen protocol. Data were analysed in BioAssay using the nonlinear regression for a sigmoidal dose-response with a variable slope.
Background: Alpha assays give light when donor and acceptor beads are brought close together.
For the molecule `OCCn1cc(Nc2ncc(Cl)c(N[C@H](CO)c3ccccc3)n2)cn1` [Compound 9], the pIC50 is 6.00 to 6.60.
Next, `OC[C@@H](Nc1nc(Nc2cnn(CC(F)F)c2)ncc1Cl)c1ccccc1F` [Compound 165]: > 6.60; `Cn1cc(Nc2ncc(Cl)c(N[C@H](CO)c3ccccc3)n2)cn1` [Compound 4]: 6.00 to 6.60.

The record behind these values is US20140179664A1, “Heterocyclyl Pyrimidine Analogues As JAK Inhibitors” (Cellzome Limited, priority 2011, published 2014).
